Source: PubChem BioAssay (NCI)
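Assay format: 96-well plates, 48-hour exposure. Definition used: TGI = concentration required for complete inhibition of growth.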

Columns and labels:
Experiment in all cases: growth of human tumour cells (NCI), 48 h
COLO 205 colon = test system: COLO 205 colon
OVCAR-4 ovarian = test system: OVCAR-4 ovarian
SK-MEL-28 melanoma = test system: SK-MEL-28 melanoma
U251 CNS = test system: U251 CNS
A498 renal = test system: A498 renal
SNB-19 CNS = test system: SNB-19 CNS
HOP-62 NSCLC = test system: HOP-62 NSCLC
HCT-15 colon = test system: HCT-15 colon
HOP-92 NSCLC = test system: HOP-92 NSCLC
CCRF-CEM leukemia = test system: CCRF-CEM leukemia
OVCAR-8 ovarian = test system: OVCAR-8 ovarian
SK-OV-3 ovarian = test system: SK-OV-3 ovarian
DU-145 prostate = test system: DU-145 prostate
NCI-H23 lung = test system: NCI-H23 lung
SW-620 colon = test system: SW-620 colon
CAKI-1 renal = test system: CAKI-1 renal
IGROV1 ovarian = test system: IGROV1 ovarian
NCI-H460 lung = test system: NCI-H460 lung
LOX IMVI melanoma = test system: LOX IMVI melanoma
MCF7 breast = test system: MCF7 breast

SMILES	TGI (COLO 205 colon) [µM]	TGI (OVCAR-4 ovarian) [µM]	TGI (SK-MEL-28 melanoma) [µM]	TGI (U251 CNS) [µM]	TGI (A498 renal) [µM]	TGI (SNB-19 CNS) [µM]	TGI (HOP-62 NSCLC) [µM]	TGI (HCT-15 colon) [µM]	TGI (HOP-92 NSCLC) [µM]	TGI (CCRF-CEM leukemia) [µM]	TGI (OVCAR-8 ovarian) [µM]	TGI (SK-OV-3 ovarian) [µM]	TGI (DU-145 prostate) [µM]	TGI (NCI-H23 lung) [µM]	TGI (SW-620 colon) [µM]	TGI (CAKI-1 renal) [µM]	TGI (IGROV1 ovarian) [µM]	TGI (NCI-H460 lung) [µM]	TGI (LOX IMVI melanoma) [µM]	TGI (MCF7 breast) [µM]
ClCCN1CCOC1=Nc1ccc2c(c1)CCCC2	25	41.4	39.1	28.6	23	17.8	22	48.6	30.7	35.7	17.3	74.9	48.4	26.7	61.2	53.8	24.8	61.8	32.3	
COC(=O)[C@H]1C[C@H]1NC(=O)C(CC(=O)OCc1ccccc1)NC(=O)OCc1ccccc1 (stereo not given in full)	43.2		> 100	> 100	> 100	> 100		> 100		> 100	> 100	> 100	> 100	> 100	> 100		> 100	72.4	> 100	> 100
CC1(C)CC(=O)C2=C(C1)S/C(=C1/SC3=C(S1)C(=O)CC(C)(C)C3)S2	> 251		> 251	> 251	> 251	> 251	> 251	> 251	> 251	> 251	> 251	> 251		> 251	> 251		> 251	> 251	> 251	
O=C(O)c1ccc([N+]2=Cn3c(nc4ccccc43)C2)cc1	> 100	> 100	> 100	> 100	> 100	> 100	> 100	> 100		> 100	> 100	> 100	> 100	> 100	> 100	> 100	> 100	> 100	> 100	> 100
COC(=O)[C@]12CSC[C@H]1C[C@H](c1ccccc1OC)N2	> 100	> 100	> 100	> 100	> 100	> 100	> 100	> 100		> 100	> 100	> 100	> 100	> 100	> 100	> 100	> 100	> 100	> 100	> 100
COc1ccc2c3c(n(Cc4ccccc4)c(=O)c2c1)-c1cc(OC)c(OC)cc1C3C (stereo not given)	> 100	47.7	> 100	35.8	97.8	> 84.9	> 70	> 100	42.6	> 100	> 100	> 80.4		> 100	> 100	> 100	> 100	21.7	> 100	
CC1(C)OC(C[C@]2(C#N)C[C@H](CCl)OC(C)(C)O2)C[C@@H](C[C@]2(C#N)C[C@H](CCl)OC(C)(C)O2)O1 (stereo not given in full)	> 100	> 100	> 100	> 100	> 100	> 100	> 100	> 100	> 100	> 100	> 100	> 100		> 100	> 100	> 100	> 100	> 100	> 100	
